US12391657B2, “Small molecules that bind and/or modulate differentforms of tau oligomers” (The Board of Regents of the University of Texas System, priority 2019, dated 2025)
Entries after “also recorded” stand apart in the source; their conditions may differ.

Legend:
[1] = system: primary cortical neurons; test: MTT viability of primary cortical neurons exposed to TauO pre-incubated with compound; assay type: cell-based, Htau mice; settings: 0.5 μM tau oligomers, 5 μM curcumin derivatives, 2 hours
Method: (§1) Compounds were dissolved in ETOH 75%/DMSO (5:1) at a final concentration of 5 mM and diluted in 1× PBS or ddH2O for incubation or toxicity assay (final concentration 5 μM). Tau oligomers in the presence of the small molecules and controls were incubated on an orbital shaker, without stirring, for 16 hours under oligomerization conditions as previously described (Lo Cascio and Kayed 2018).
(§2) Human neuroblastoma SH-SY5Y cells were maintained in Dulbecco's modified Eagle's medium (DMEM) and grown to confluence in 96-well plates. […] Cells viability was corrected by the vehicle background. All measurements were performed in triplicate. The cytotoxic effect was determined using 3-(4,5-dimethylthiazol-2-yl)-2,5-diphenyltetrazolium bromide (MTT) assay for assessing cell viability following manufacturer's instructions. Optical density (OD) was measured at 490 nm with POLARstar OMEGA plate reader (BMG Labtechnologies). Cell viability was calculated as the percentage of the OD value of treated cells compared with untreated controls, according to the following equation: Viability=(OD SAMPLE/OD CONTROL)×100. Statistical analysis was based on one-way analysis of variance (ANOVA), performed using GraphPad Prism 6.01.
(§3) Primary cortical neurons from transgenic mice expressing human full-length tau were prepared and maintained as described previously (Beaudoin, Lee et al. 2012). Briefly, cortical neurons were isolated from embryos at embryonic day 16-18 using Accutase solution (Sigma). Dissociated neurons were plated at a density of […] in 96-well plates containing high glucose Dulbecco's Modified Eagle Medium (DMEM, Corning) supplemented with 2% B27 (Gibco), 10,000 units/mL penicillin, 10,000 μg/mL streptomycin , and 25 μg/mL Amphotericin B (Gibco). After 2 hours, plating medium was removed from cells and replaced with Neurobasal medium (Gibco) plus 2% B27, […] (Hyclone), 10,000 units/mL, 10,000 μg/mL streptomycin, and 25 μg/mL Amphotericin B supplement. Cells were grown for 10-12 days in vitro before experiments and 50% of media changes were performed every 3 days. […] The MTT viability assay was performed as previously described (Cell Toxicity Assay—MTT).

[2] = target: T1, recombinant tau oligomers (TauO) (Homo sapiens, UniProt P10636); test: Atomic force microscopy of recombinant tau oligomers after compound treatment; settings: 5 μM of curcumin derivatives
T1 construct: made in house
T1 sequence (P10636 1-441 isoform P10636-8): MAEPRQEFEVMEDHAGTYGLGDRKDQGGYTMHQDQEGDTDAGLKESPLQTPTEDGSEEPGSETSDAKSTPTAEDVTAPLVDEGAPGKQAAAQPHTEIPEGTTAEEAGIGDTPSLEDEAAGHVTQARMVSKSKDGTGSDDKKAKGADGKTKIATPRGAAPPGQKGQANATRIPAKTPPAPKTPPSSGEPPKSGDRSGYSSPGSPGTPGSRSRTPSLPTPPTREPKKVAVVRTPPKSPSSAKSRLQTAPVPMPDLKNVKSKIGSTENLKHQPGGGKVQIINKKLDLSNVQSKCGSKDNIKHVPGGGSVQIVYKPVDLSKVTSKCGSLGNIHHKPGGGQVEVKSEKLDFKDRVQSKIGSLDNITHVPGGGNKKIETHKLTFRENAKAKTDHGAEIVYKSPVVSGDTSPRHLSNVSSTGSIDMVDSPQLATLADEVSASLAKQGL
Method: (§4) Tau oligomers were characterized by AFM as previously described (Lasagna-Reeves, (2010)0. Briefly, samples were prepared by adding 10 μl tau oligomers in the absence and presence of AC on freshly-cleaved mica and were allowed to adsorb to the surface. Mica were then washed three times with distilled water to remove unbound protein and impurities followed by air-drying. Samples were then imaged with Multimode 8 AFM machine (Veeco, CA) using a non-contact tapping method (ScanAsyst-Air).
as §1
as §4, with “(Lasagna-Reeves, Castillo-Carranza et al. 2010).” for “(Lasagna-Reeves, (2010)0.”, “absence or” for “absence and”

[3] = system: primary cortical neurons; test: MTT viability of primary cortical neurons exposed to Aβ oligomers pre-incubated with compound; assay type: cell-based, Htau mice; settings: 0.5 μM Aβ oligomers, 5 μM curcumin derivatives
Method: Aβ oligomers (AβO) were prepared as previously described (Lasagna-Reeves, Castillo-Carranza et al. 2010) by dissolving 0.3 mg of Aβ pellet in 200 μL of hexafluoroisopropanol (HFIP) and incubating for 10-20 min at room temperature. The resulting solution was added to 700 μL of ddH2O in a siliconized Eppendorf tube with holes placed on top of the cap to allow the slow evaporation of HFIP. The samples were then stirred at 500 rpm using a Teflon-coated micro stir bar for 48 hours at room temperature in the fume hood.
as §1, with “Aβ” for “Tau”
as §2, §3

[4] = cited from earlier work
[5] = in vivo; cited from earlier work
[6] = system: PSP BDTOs; test: Atomic force microscopy of PSP BDTOs with and without compound; settings: with CL3
Method: as §4, with “(Lasagna-Reeves, Castillo-Carranza et al. 2010).” for “(Lasagna-Reeves, (2010)0.”, “absence or” for “absence and”
as §1, with “conditions.” for “conditions as previously described (Lo Cascio and Kayed 2018).”
(§5) Immunoprecipitated tau oligomers were characterized using various biochemical methods as previously described (Lasagna-Reeves 2012, Gerson, Castillo-Carranza et al. 2016). AFM was performed to visualize the morphologies of oligomeric assemblies of isolated proteins. Isolated oligomers (5 μL) were injected into an LC-6AD Shimadzu HPLC system fitted with a TSK-GEL G3000 SWXL (30 cm×7.8 mm) column, Supelco-808541 to determine the size of the isolated oligomers. PBS (pH 7.4) was used as the mobile phase with a flow rate of 0.5 mL/min. […]

[7] = system: primary cortical neurons; test: MTT viability of primary cortical neurons exposed to AD BDTOs with and without compound; assay type: cell-based, Htau mice; settings: 0.5 μM BDTOs, CL3 final concentration 5 μM
Method: as §2
as §1, with “conditions.” for “conditions as previously described (Lo Cascio and Kayed 2018).”
(§6) Primary cortical neurons from transgenic mice expressing human full-length tau were prepared and maintained as described previously (Beaudoin, Lee et al. 2012). […]

[8] = system: primary cortical neurons; test: MTT viability of primary cortical neurons exposed to PSP BDTOs with and without compound; assay type: cell-based, Htau mice; settings: 0.5 μM BDTOs, CL3 final concentration 5 μM
Method: as §2
as §1, with “conditions.” for “conditions as previously described (Lo Cascio and Kayed 2018).”
as §6

[9] = system: primary cortical neurons; test: BDTOs with and without CL3 taken up by primary cortical neurons, Western blot of cytoplasmic fraction; assay type: cell-based; settings: 0.5 μM DLB, AD and PSP BDTOs, 5 μM CL3, 24 hrs
Method: FIG. 15. Disease-relevant brain-derived tau oligomers with and without CL3 taken up by primary cortical neurons. Primary cortical neurons were exposed to 0.5 μM DLB, AD and PSP BDTOs in the presence and absence of 5 μM CL3 for 24 hrs. Tau levels are evaluated in the cytoplasmic fraction using the generic tau antibody, Total Tau. […] PSP show to more efficiently decrease monomeric tau in the cytoplasmic fraction as compared to DLB and AD. […] Data were compared by one-way analysis of variance (ANOVA) followed by Dunnett's multiple comparison test: Ctrl vs DLB, DLB+CL3, AD, AD+CL3, PSP, PSP+CL3: **p<0.01; ***p<0.001; ****p<0.0001. Bars and error bars represent the mean and standard deviation.

[10] = system: AD BDTOs; test: Atomic force microscopy of AD BDTOs with and without compound; settings: with CL3
Method: as §4, with “(Lasagna-Reeves, Castillo-Carranza et al. 2010).” for “(Lasagna-Reeves, (2010)0.”, “absence or” for “absence and”
as §1, with “conditions.” for “conditions as previously described (Lo Cascio and Kayed 2018).”
as §5

Structure (SMILES): CC(=O)/C=C/c1ccc(C)cc1 [HemiC9]
- viability of neuronal culture exposed to TauO pre-incubated with compound [1]: significantly higher cells viability as compared to TauO alone
- morphology and aggregation state of TauO by AFM [2]: converting TauO into much larger aggregates
- viability of neuronal culture exposed to AβO pre-incubated with compound [3]: no changes in cells viability as compared to AβO alone

Structure (SMILES): COc1cc(/C=C/C(=O)COC(=O)/C=C/c2ccc(O)c(OC)c2)ccc1O [Calebin-A]
- solubility in aqueous media [4]: poor solubity in water
- bioavailability [5]: low bioavailabity

Structure (SMILES): O=C(/C=C/c1ccc(F)cc1)C(=O)/C=C/c1ccc(F)cc1 [CL3]
- viability of neuronal culture exposed to TauO pre-incubated with compound [1]: significantly higher cells viability as compared to TauO alone
- morphology and aggregation state of PSP BDTOs by AFM [6]: formation of larger tau aggregates
- AD BDTOs-induced toxicity in primary neurons (cell viability) [7]: not be able to modulate and neutralize AD BDTOs-induced toxicity; also recorded: no effect in preventing AD BDTOs-induced toxicity
- morphology and aggregation state of TauO by AFM [2]: converting TauO into much larger aggregates
- PSP BDTOs-induced toxicity in primary neurons (cell viability) [8]: reduced PSP-derived tau oligomers toxicity; also recorded: able to rescue primary neurons from PSP BDTOs-induced toxicity; also recorded: modulates PSP BDTOs associated neurotoxicity
- effect of BDTO pretreatment on tau levels in cytoplasmic fraction of primary neurons [9]: differently modulate their aggregation states
- viability of neuronal culture exposed to AβO pre-incubated with compound [3]: no changes in cells viability as compared to AβO alone
- morphology and aggregation state of AD BDTOs by AFM [10]: no morphological changes were observed

Structure (SMILES): COc1cc(/C=C/C(=O)OCC(=O)/C=C/c2ccc(OC)c(OC)c2)ccc1F [Cal9]
- viability of neuronal culture exposed to TauO pre-incubated with compound [1]: significantly higher cells viability as compared to TauO alone
- morphology and aggregation state of TauO by AFM [2]: converting TauO into much larger aggregates
- viability of neuronal culture exposed to AβO pre-incubated with compound [3]: no changes in cells viability as compared to AβO alone

Structure (SMILES): O=C(/C=C/c1ccc(Cl)cc1)COC(=O)/C=C/c1ccc(Cl)cc1 [Cal7]
- viability of neuronal culture exposed to TauO pre-incubated with compound [1]: significantly higher cells viability as compared to TauO alone
- morphology and aggregation state of TauO by AFM [2]: converting TauO into much larger aggregates
- viability of neuronal culture exposed to AβO pre-incubated with compound [3]: no changes in cells viability as compared to AβO alone
